Legend:
A549 (lung carcinoma) = assay: Proliferation assay (MTT, 72 h) on A549; format: cell-based; conditions: Homo sapiens, A549 lung adenocarcinoma
Method: (§1) Human carcinoma cell lines A549 (lung carcinoma), HeLa (cervical carcinoma), SW620 (colorectal adenocarcinoma, metastatic), and CFPAC-1 (pancreatic cancer, derived from metastatic: liver), normal human lung (WI38) and foreskin (HFF-1) fibroblasts were obtained from the American Type Culture Collection (ATCC). Cells were cultured in humidified atmosphere at 37 °C with 5% CO2. As growth medium, Dulbecco’s modified Eagle medium (DMEM) was used with the addition of foetal bovine serum (10%), L-glutamine (2 mM) and antibiotics: streptomycin (100 µg/ml) and penicillin (100 U/ml).
(§2) Cells were seeded onto 96-well microtiter plates at a seeding density of 3000 cells/well for carcinoma cell lines, and 5000 cells/well for normal human fibroblasts. The next day, cells were treated with test agents in five different concentrations (0.01–100 µM) and further incubated for 72 h. […] Following 72 h incubation, the MTT assay was performed and measured absorbances were transformed into percentage of cell growth as described previously. Results were obtained from three independent experiments. IC50 values were calculated using linear regression analysis and results were statistically analysed by ANOVA, Tukey post-hoc test (p < .05).

[1] = system: CFPAC-1 (ductal pancreatic adenocarcinoma); assay: Proliferation assay (MTT, 72 h) on CFPAC-1; format: cell-based; conditions: Homo sapiens
Method: as §1, §2

[2] = system: HeLa (cervical carcinoma); assay: Proliferation assay (MTT, 72 h) on HeLa; format: cell-based; conditions: Homo sapiens
Method: as §1, §2

[3] = system: SW620 (colorectal adenocarcinoma, metastatic); assay: Proliferation assay (MTT, 72 h) on SW620; format: cell-based; conditions: Homo sapiens, SW-620
Method: as §1, §2

[4] = system: WI38 normal human lung fibroblasts; assay: Proliferation assay (MTT, 72 h) on normal lung fibroblasts WI38; format: cell-based; conditions: WI-38, read-out: IC50 WI38/HFF-1 (WI38)
Method: as §1, §2

[5] = system: HFF-1 normal human foreskin fibroblasts; assay: Proliferation assay (MTT, 72 h) on normal foreskin fibroblasts HFF-1; format: cell-based; conditions: compounds 11a–e tested in HFF-1 cell line, read-out: IC50 WI38/HFF-1 (HFF-1)
Method: as §1, §2

A549 cells = assay: Annexin V-FITC assay for apoptosis detection; format: cell-based, human
Method: Staining of the cells was performed by Annexin-V-FITC Staining kit (Santa Cruz Biotechnology, Dallas, TX) according to the manufacturer’s instructions. Cells were visualised by fluorescent microscope (Olympus) at magnification of 40×.
Further biological evaluations of compound 12b which was identified as a candidate were performed in order to investigate whether its antiproliferative effect in non-small cell lung cancer (A549) could be associated with induction of apoptosis.

GPLD1 = assay: Western blot analysis of GPLD1 in A549 cells; format: cell-based, human; conditions: A549, 2 × IC50, 48 h
Method: (§3) Cells were seeded in 6-well plates in the concentration depending on tested cell line varying from 1 × 10^5 to 2 × 10^5 cells/well. […] Following treatment, cells were lysed with RIPA buffer supplemented with protease and phosphatase inhibitors (Roche). Total proteins (50 µg) were resolved on 10 or 12% polyacrilamide gels, depending on protein size, and transferred onto PVDF membranes that were blocked for 1 h with either 4% BSA or 5% non-fat milk prepared in tris-buffered saline (TBST). Membranes were probed with primary antibodies against GPLD1 (Abcam), PDGFRβ, p-IGF-1Rβ, p-p38 MAPK, and p-NF-κB-p65 from cell signalling technology at 4 °C overnight. The next day, membranes were washed in TBST and probed with horseradish peroxidase-conjugated secondary antibodies goat anti-mouse (Santa Cruz Biotechnology) or goat anti-rabbit (Santa Cruz Biotechnology). Protein bands were visualised using chemiluminescence substrate and ImageQuant LAS 500 (GE Healthcare, Chicago, IL). Following visualisation, protein band density was analysed by Quantity One 1-D Analysis Software (Bio-Rad, Hercules, CA).

PDGFRβ = assay: Western blot analysis of PDGFR in A549 cells; format: cell-based, human; conditions: A549, 2 × IC50, 48 h
Method: as §3

p-IGF-1Rβ = assay: Western blot analysis of p-IGF-1Rβ in A549 cells; format: cell-based, human; conditions: A549, 2 × IC50, 48 h
Method: as §3

p-NF-κB-p65 = assay: Western blot analysis of p-NF-κB-p65 in A549 cells; format: cell-based, human; conditions: A549, 2 × IC50, 48 h
Method: as §3

p-p38 MAPK = assay: Western blot analysis of p-p38 MAPK in A549 cells; format: cell-based, human; conditions: A549, 2 × IC50, 48 h
Method: as §3

[6] = A549, 48 h, 2 × IC50, versus control

SMILES | IC50 (A549 (lung carcinoma)) | IC50 [1] | IC50 [2] | IC50 [3] | IC50 [4] | melting point | IC50 [5] | Secondary necrotic cells (A549 cells; A549, 48 h, 2 × IC50, PI+) | Late apoptotic/Primary necrotic cells (A549 cells; A549, 48 h, 2 × IC50, PI+/Ann V+) | Early apoptotic cells (A549 cells; A549, 48 h, 2 × IC50, PI−/Ann V+) | Viable cells (A549 cells; A549, 48 h, 2 × IC50, PI−/Ann V−) | increase in early apoptotic cell population (A549 cells; [6]) | increase in late apoptotic/necrotic cell population (A549 cells; [6]) | induction of apoptosis (A549 cells; A549 cells) | expression level of GPLD1 protein (GPLD1) | expression of PDGFR (PDGFRβ) | expression of p-IGF-1Rβ (p-IGF-1Rβ) | p-NF-κB-p65 subunit expression level (p-NF-κB-p65) | expression level of p-p38 MAP kinase (p-p38 MAPK)
Fc1ccc2c(ccn2Cc2cn(-c3ccc(C(F)(F)F)cc3)nn2)c1 [Compound 10c, 5-Fluoro-1-{[1–(4-(trifluoromethyl)phenyl)-1 H-1,2,3-triazol-4-yl]methyl}-1 H-indole] | 71.6 µM | 64.7 µM | 53 µM | 54.2 µM | 24 µM | 151 to 154 °C |  |  |  |  |  |  |  |  |  |  |  |  | 
O=c1cc(Cn2cc(Cn3ccc4cc(F)ccc43)nn2)c2ccc(O)cc2o1 [Compound 10e, 4-{[4-((5-Fluoro-1H-indol-1-yl)methyl)-1H-1,2,3-triazol-1-yl]methyl}-7-hydroxy-2H-chromen-2-one] | 51.9 µM | 77.1 µM | 47.6 µM | 57.6 µM | 45.7 µM | 181 to 184 °C |  |  |  |  |  |  |  |  |  |  |  |  | 
Fc1ccc(-n2cc(Cn3ccc4ccccc43)nn2)cc1 [Compound 11a, 1-{[1-(4-Fluorophenyl)-1H-1,2,3-triazol-4-yl]methyl}-1H-indole] | 44 µM | > 100 µM | > 100 µM | 43.3 µM |  |  | > 100 µM |  |  |  |  |  |  |  |  |  |  |  | 
Clc1ccc(-n2cc(Cn3ccc4ccccc43)nn2)cc1 [Compound 11b, 1-{[1-(4-Chlorophenyl)-1H-1,2,3-triazol-4-yl]methyl}-1H-indole] | > 100 µM | > 100 µM | > 100 µM | > 100 µM |  |  | > 100 µM |  |  |  |  |  |  |  |  |  |  |  | 
FC(F)(F)c1ccc(-n2cc(Cn3ccc4ccccc43)nn2)cc1 [Compound 11c, 1-{[1-(4-(Trifluoromethyl)phenyl)-1H-1,2,3-triazol-4-yl]methyl}-1H-indole] | > 100 µM | > 100 µM | > 100 µM | > 100 µM |  |  | > 100 µM |  |  |  |  |  |  |  |  |  |  |  | 
Fc1ccccc1-n1cc(Cn2ccc3ccccc32)nn1 [Compound 11d, 1-{[1-(2-Fluorophenyl)-1H-1,2,3-triazol-4-yl]methyl}-1H-indole] | 51.3 µM | 85.6 µM | 71.2 µM | 44.8 µM |  |  | 40.4 µM |  |  |  |  |  |  |  |  |  |  |  | 
O=c1cc(Cn2cc(Cn3ccc4ccccc43)nn2)c2ccc(O)cc2o1 [Compound 11e, 4-{[4-((1H-Indol-1-yl)methyl)-1H-1,2,3-triazol-1-yl]methyl}-7-hydroxy-2 H-chromen-2-one] | 75.4 µM | > 100 µM | 83 µM | 68.5 µM |  | 155 to 158 °C | 40 µM |  |  |  |  |  |  |  |  |  |  |  | 
Clc1ccc(-n2cc(Cn3cnc4ccccc43)nn2)cc1 [Compound 12b, 1-{[1-(4-chlorophenyl)-1H-1,2,3-triazol-4-yl]methyl}-1H-benzo[d]imidazole] | 0.79 µM | 52.6 µM | 42.2 µM | 91.2 µM | 38.1 µM |  |  | 2.39% | 19.76% | 31.14% | 46.71% | 30.62% | 19.76% | induced apoptosis | dramatically reduced | downregulated | downregulated | significant reduction | marked decline

Reference: paper PMC6009932, “Small molecule purine and pseudopurine derivatives: synthesis, cytostatic evaluations and investigation of growth inhibitory effect in non-small cell lung cancer A549” (Journal of Enzyme Inhibition and Medicinal Chemistry, 2017)
